US9969972B2, “Pluripotent stem cell culture on micro-carriers” (Janssen Biotech, Inc., priority 2008, dated 2018)

Tests used:
H9 cells [1] = assay: Rho kinase inhibitor concentration for attachment and growth of H9 cells on micro-carriers; assay type: cell-based, human; details: H9 passage 44, MEF-CM, rocking platform
Protocol: A starting aliquot of 13,333 cells/cm^2 H9 cells at passage 44 was seeded onto 15 cm^2 of micro-carriers in a single well of a 12 well non-tissue culture treated plate. The cells were placed at 37° C. for at least 60 minutes before placing them onto a rocking platform at 37° C. Prior to adding the cells, HILLEX®II (Solohill, MI) and Cytodex 3® (GE Healthcare Life Sciences, NJ) micro-carriers were prepared as directed by the manufacturer. Cells were grown in MEF-CM plus a range of Rho kinase inhibitor concentrations, Y27632 at 10, 5, 2.5 or 1 μM, or (S)-(+)-4-Glycyl-2-methyl-1-[(4-methyl-5-isoquinolinyl)sulfonyl]-hexahydro-1H-1,4-diazepine dihydrochloride (Glycyl-H 1152 dihydrochloride (H), Tocris, MO) at 5, 2.5, 1 or 0.5 μM). The medium was changed daily and one well of cells was counted at 4 and 7 days after seeding for yield and viability (FIGS. 7, A and B).

H1 cells [2] = assay: Dose titration of Rho kinase inhibitor, H1 cells on micro-carriers; assay type: cell-based, human
Protocol: Next a dose titration of the Rho kinase inhibitor was attempted since it has been characterized as a […]. H1 cells at passage 48 were dissociated from MATRIGEL™ (BD Biosciences, CA) coated plates with TrypLE™ Express. The cells were then seeded onto 15 cm^2 of micro-carriers into a single well of a 12 well non-tissue culture treated plate. HILLEX®II (Solohill, MI), Cytodex 1®, or Cytodex 3® (GE Healthcare Life Sciences, NJ) micro-carriers were tested with decreasing amounts of Rho kinase inhibitor: 10 μM Y27632 (Sigma-Aldrich, MO) was used on day one followed by […] on day two (Y10/5 μM); 2.5 μM Glycyl-H 1152 dihydrochloride (Tocris, MO) was used on day one followed by 0.5 μM on day two (H2.5/0.5 μM); 1 μM Glycyl-H 1152 dihydrochloride (Tocris, MO) was used on day one followed by 0.5 μM Glycyl-H 1152 dihydrochloride (Tocris, MO) on day two (H1/0.5 μM); or continuous addition of 0.25 μM Glycyl-H 1152 dihydrochloride (Tocris, MO) was applied daily in MEF-CM (H0.25 μM). H1 cells and micro-carriers were agitated every 45 minutes for 3 hours at 37° C. before being placed on a rocking platform at 37° C. Cells were counted after 3, 5 and 7 days on the rocking platform at 37° C. (FIG. 8). Overall the best concentration of Glycyl-H 1152 dihydrochloride (Tocris, MO) was 1-2.5 μM on day one and 0.5 μM on day 2 followed by withdrawal of the compound. […] Using a minimal amount of Rho-kinase inhibitor also helps reduce costs for the process and maybe beneficial to cell proliferation.

H9 cells [3] = assay: Proliferation of H9 cells on micro-carriers in defined medium; assay type: cell-based, human; details: H9 p64, StemPro, 2.5 μM, on Cytodex 3 micro-carriers
Source text: To manufacture a therapeutic product, it is desirable to remove any animal components from the human embryonic stem cell culture medium. Currently human embryonic stem cells are maintained on MATRIGEL™ (BD Biosciences, CA) in medium conditioned using mouse embryonic fibroblasts (MEF-CM). Both MATRIGEL™ (BD Biosciences, CA) and MEF-CM are derived from mouse cells. Additionally, MEF-CM is an expensive and time-consuming medium to generate. To determine if human embryonic stem cells can be sustained on micro-carriers with defined medium, H9 cells were seeded onto Cytodex 3® (GE Healthcare Life Sciences, NJ) and HILLEX®II (Solohill, MI) micro-carriers in the presence of Rho kinase inhibitors, 10 μM Y27632 (Sigma-Aldrich, MO) or 2.5 μM Glycyl-H 1152 dihydrochloride (Tocris, MO) in Stem Pro (Invitrogen, CA), mTESR (StemCell Technologies, Vancouver, Canada) or MEF-CM. The cells were placed in a 12 well dish on a rocking platform at 37° C. The cells were counted at days 3, 5 and 7. […] Therefore the micro-carrier type, Rho kinase inhibitor, and medium all play a role in determining the ability of human embryonic stem cells to proliferate.

H1 cells [4] = assay: Proliferation of H1 cells on micro-carriers in defined medium; assay type: cell-based, human; details: H1 passage 38, MEF-CM
Protocol: H1 human embryonic stem cells at passage 38 were seeded onto either Cytodex 3® or HILLEX®II micro-carriers in the presence of Rho kinase inhibitors, 10 μM Y27632 (Sigma-Aldrich, MO) or 2.5 μM Glycyl-H 1152 dihydrochloride in mTESR (StemCell Technologies, Vancouver, Canada) or MEF-CM in a 12 well dish. The cells were placed on a rocking platform at 37° C. The cells were counted at days 3, 5 and 7.
Cells were incubated at 37° C. in a 10 cm^2 dish for 5 hours with agitation by hand every 45 minutes. mTESR (StemCell Technologies, Vancouver, Canada) plus 10 μM Y27632 (Sigma-Aldrich, MO) was changed every other day. This was conducted in parallel with cells grown in MEF-CM (Example 5).

[5] = test system: H1 human embryonic stem cells; assay: Single cell passage of H1 cells from fibroblast feeders to PRIMARIA; assay type: cell-based; details: feeder free/matrix free culture on PRIMARIA, greater than 8 passages
Protocol: Method: Cells were routinely passaged by aspirating media, washing with PBS, and then treating the cells with a dissociation enzyme (collagenase, Accutase™, or TrypLE). Collagenase was used at 1 mg/ml concentration; Accutase™ or TrypLE were used at 1× stock concentration. All enzymes were used after reaching room temperature. A solution of 2% BSA in DMEM/F12 was added to each well and cells were uniformly suspended in the solution after treating the cells with enzyme. Cells were then centrifuged for 5 minutes at 200 g, the cell pellet and additional 2% BSA in DMEM/F12 solution was added to resuspend cells and the cell suspension was distributed to three 50 ml sterile conical tubes and centrifuged for 5 min at 200 g.
Using a sequential method, the fibroblast feeders were removed by high density passaging the cluster/colony style human embryonic stem cells to a Primaria surface by treating the MEF based culture with either Accutase™, TrypLE™, or collagenase. […] Cell number for cells lifted with TrypLE™ or Accutase™ was determined by counting trypan blue stained cells with a hemocytometer. […]
2nd passage: Cells were passaged at a ratio of 1 to 4 using a 10 minutes exposure to TrypLE™ or Accutase™. A shorter enzyme exposure time, which was determined empirically by treating the cells and monitoring for detachment, was also introduced. […]

H1 and H9 cells = assay: Attachment of H1 and H9 cells to micro-carrier beads in MEF-CM with 10 μM Y27632; assay type: cell-based, human; details: 10 μM in MEF-CM, static culture
Protocol: To improve the attachment and proliferation of human embryonic stem cells on micro-carriers, a small molecule inhibitor of Rho-associated coiled coil forming protein serine/threonine kinase, Rho kinase inhibitor was added to the media. Specifically, Y27632, Y, (Sigma-Aldrich, MO) was used. MEF-CM plus 10 μM Y27632 (Sigma-Aldrich, MO) was changed daily. […] By analysis of images, human embryonic stem cells grown on HILLEX®II micro-carriers (Solohill, MI) appeared to attach and proliferate better than human embryonic stem cells on other micro-carriers tested. Additionally, H9 cells attached better to HILLEX®II (Solohill, MI) in the presence of the Rho kinase inhibitor (FIG. 1A compared to 1B).
The H1 human embryonic cell line was also tested for growth on micro-carriers for large-scale expansion. Because a Rho kinase inhibitor, Y27632 (Sigma-Aldrich, MO), was necessary for attachment of the H9 cell line, it was also assumed to be necessary for H1 cells. Cytodex 1®, Cytodex 3® (GE Healthcare Life Sciences, NJ), HILLEX®II, Plastic, ProNectinF, Plastic Plus micro-carriers (SoloHill Ann Arbor, MI) were prepared according to the manufacturer's instructions. […] After 3, 5 and 7 days, one well was imaged, harvested, and counted. […] Cells were detached according to Example 4 and counted for yield.

Structure (SMILES)	concentration with the best attachment (day 4) (H9 cells [1])	best concentration on day one (H1 cells [2]; H1 passage 48, MEF-CM, HILLEX II, Cytodex 1 or Cytodex 3)	best concentration on day 2 (H1 cells [2]; H1 passage 48, followed by withdrawal of the compound)	cell yield (H1 cells [2]; cells maintained in 0.25 μM continuously)	proliferation (H9 cells [3])	growth (H1 cells [4]; 2.5 μM, on Cytodex 3)	pluripotency and differentiation capacity of culture [5]	attachment of H9 cells to micro-carriers (H1 and H9 cells)	effect of removal of the inhibitor on attachment (H1 cells [2]; H1 cells on micro-carriers)	expansion (H1 cells [4]; both micro-carrier types, 10 μM)
Cc1cncc2cccc(S(=O)(=O)N3CCCN(C(=O)CN)C[C@@H]3C)c12.Cl.Cl [Glycyl-H 1152 dihydrochloride, (S)-(+)-4-Glycyl-2-methyl-1-[(4-methyl-5-isoquinolinyl)sulfonyl]-hexahydro-1H-1,4-diazepine dihydrochloride]	5 µM	1 to 2.5 µM	0.5 µM	poor cell yield	did not proliferate well	poor growth	retains pluripotency and the ability to differentiate to definitive endoderm			
C[C@@H](N)[C@H]1CC[C@H](C(=O)Nc2ccncc2)CC1 [Y27632]								attached and formed aggregates with all micro-carriers tested	did not cause the H1 cells to dissociate	typical expansion characteristics
